Reference: the NIST ThermoML archive (doi:10.1007/s10765-010-0725-9)
“And” between values parts separate entries of the source, which are not always exact repeats. Equal entries are not always repeated.

How the values were obtained:
[1] = wn = mass fraction of the nth substance listed; conditions: Pendant drop shape
[2] = Pendant drop shape

[Ca+2].[Cl-].[Cl-] [calcium chloride] + O
surface tension liquid-gas [mN/m], [1]
Conditions	303.15 K	313.15 K	323.15 K	333.15 K
w1 = 0.04	72.74	70.84	69.62	67.62
w1 = 0.1	74.59	72.56	70.38	68.56
w1 = 0.14	76.08	73.65	71.52	70.63
w1 = 0.18	77.53	74.89	73.25	71.87

[Cl-].[K+] [potassium chloride] + O
surface tension liquid-gas [mN/m], [1]
Conditions	303.15 K	313.15 K	323.15 K	333.15 K
w1 = 0.1	71.58	69.86	67.57	66.39
w1 = 0.14	72.12	70.64	69.15	66.16
w1 = 0.18	76.78	75.23	74.65	71.44

[Cl-].[Na+] [sodium chloride] + O
surface tension liquid-gas [mN/m], [1]
Conditions	303.15 K	313.15 K	323.15 K	333.15 K
w1 = 0.04	71.44	70.66	68.25	67.31
w1 = 0.1	73.42	71.81	70.97	69.74
w1 = 0.14	76.09	74.6	72.47	71.83
w1 = 0.18	77.04	74.73	73.38	71.44

O=S(=O)([O-])[O-].[Na+].[Na+] [sodium sulfate] + O
surface tension liquid-gas [mN/m], [1]
Conditions	303.15 K	313.15 K	323.15 K	333.15 K
w1 = 0.04	71.53	70.7	68.8	67.27
w1 = 0.1	73.56	71.88	70.5	69.11
w1 = 0.14	74.02	72.82	71.65	69.93
w1 = 0.18	76.28	74.97	73.22	71.4

O [water]
[2]
Conditions	surface tension liquid-gas
303.15 K	71.54 mN/m and 72.12 mN/m and 71.58 mN/m
313.15 K	70.64 mN/m and 68.96 mN/m and 69.86 mN/m
323.15 K	69.15 mN/m and 67.83 mN/m and 67.57 mN/m
333.15 K	66.16 mN/m and 66.39 mN/m
343.15 K	65.39 mN/m and 65.8 mN/m and 64.73 mN/m
